Our source for the melting point values is a melting point compilation (Tetko et al.; mined from patent text by program, amines drawn as free bases though some values may be those of a salt).

As usually defined, the melting point is the temperature, or range, at which the solid turns liquid. Take `CCN(CC)c1ccc(NC(=O)c2cnn(-c3ccc(F)cc3)c2C)cc1C#N`: the melting point lay within 135 to 136 °C.

With `N#Cc1cccc(C=O)c1[N+](=O)[O-]`, the melting point is 109 to 111 °C. `COc1cc(OC)c2c(=O)[nH]c(-c3ccc(OC4CCN(C(=O)N(C)C)CC4)cc3)nc2c1` showed a melting point of 248 to 249 °C. The value for `CC(C)C(NS(=O)(=O)c1ccc(Cl)s1)c1cccn1Cc1ccccc1` (centres undefined) was 102 to 103 °C; that for `Cc1cc(Cl)ccc1OCC(=O)N1Cc2ccc(C(=O)c3ccc(C(C)(C)C)cc3)n2Cc2ccccc21` was 168 °C; that for `O=C1c2ccccc2C(=O)N1CC(=O)N1c2ccccc2N(Cc2ccccc2)C(=O)C2(Cc3ccccc3)CCCC12` (centres undefined) was 214 to 215 °C. The value for `O=S(=O)(Nc1ccc(Cl)c(Cl)c1)c1cc(S(=O)(=O)Nc2ccc(Cl)c(Cl)c2)c2cc(O)ccc2c1` was 158 to 160 °C; that for `CC(C)Oc1cccc2oc(-c3ccccc3)cc(=O)c12` was 98 to 99 °C; that for `Oc1ccc(C(c2ccc(O)cc2)n2cncn2)cc1` was 230 °C. `COC(=O)c1c(-c2ccccc2Cl)c2cc(C)c(C)cc2n(C)c1=O` had a melting point of 202 to 203 °C. As to `CCCCCCCCCCCCCCCCCCSC(C)CC#N` (centres undefined), the melting point is 38 °C. `CCC(C)C(NC(=O)C(C)CS)C(=O)O` (centres undefined) displayed a melting point of 164 °C. The value for `O=S(=O)(NCCCCOc1ccc(-n2ccnc2)cc1)c1ccc(I)cc1` was 150 to 152 °C; that for `COc1ccc(Cc2cc(SC#N)ccc2OC)cn1` was 56 to 58 °C. To `C1=Cc2ccccc2NN=C1` belongs 183 to 184 °C; to `O=C1CCCc2ccc(OCCCCN3CCN(c4cccc5c4OCC5)CC3)nc2N1`, 176 to 177 °C; to `CCn1ncc2c3onc(-c4ccc(F)cc4)c3cnc21`, 175 to 176 °C.

Molecule `CCC(O)c1cc(C(=O)c2ccccc2)no1` (centres undefined) returned a melting point of 70 to 71 °C. In turn, `O=C(O)c1cc(C(=O)O)cc(S(=O)(=O)Nc2ccc(F)c(C(F)(F)F)c2)c1` came in with a melting point of 286 to 288 °C. The value for `O=C(Nc1ccc2cc(CN3CCCC3)ccc2c1)c1ccc(-c2ccccc2)nc1` was 212 to 214 °C; that for `Cc1nc2c(O)c(CC[C@@H](O)c3ccccc3)c(C(=O)N(C)C)cc2n1COCC[Si](C)(C)C` was 142 to 143 °C. The value for `O=C(NCCO)c1ccc(-c2ccccn2)cc1` was 86 to 88 °C. Turning to `O=S(c1ccc(/C=C/c2nc(COc3ccc(CCCCn4ccnn4)cc3)co2)cc1)C(F)(F)F` (centres undefined), the melting point was in the range of 122 to 123 °C. To `COC(=O)c1ccsc1S(=O)(=O)Cl` belongs 51 to 54 °C.

On to `Nc1ccc(-c2cc(C(F)(F)F)nc(-c3ccc(C(F)(F)F)cc3)n2)cc1`, for which the melting point was determined as 162 °C.

With `COC(=O)c1cc(=O)c2cc3[nH]c(=O)oc3cc2[nH]1`, the melting point turned out to be 297 °C. In the case of `CN1c2ccccc2Sc2c(C=O)cccc21`, the melting point came to 103 °C. To `CC1(C)OC(=O)C(Oc2cccc(F)c2)=C1c1ccc(S(C)(=O)=O)cc1` belongs 136 to 138 °C. Turning to `O=C(O)[C@H]1NCC[C@@H](O)[C@@H]1O`, the melting point was in the range of 253 to 260 °C. To `C=C1c2ccccc2CC(NO)c2ccccc21` (centres undefined) belongs 145 to 147 °C. The value for `CCc1nc2cnc3ccccc3c2n1CCCCN` was 84.8 to 88.7 °C; that for `O=C(O)c1cc([N+](=O)[O-])cc2c1Nc1cc(-c3ccccc3)ccc1O2` was more than 250 °C. The value for `Cc1nnc(N2N=C(c3ccc([N+](=O)[O-])cc3)c3cc4c(cc3C[C@H]2C)OCO4)o1` was 202 to 204 °C.

Molecule `COc1ccc([C@H](C)NC(=O)COc2cc(C(F)(F)F)c3c(-c4ccccc4)nn(C)c3n2)cc1` yielded a melting point of 172 to 174 °C.

As to `CNC(=C[N+](=O)[O-])SCc1ccc(CN(C)C)o1`, the melting point lay within 101 to 103 °C.

Consider `COC(=O)NCC(C)OS(C)(=O)=O` (centres undefined), for which the melting point is 37 to 40 °C.

On to `COC(=O)c1cc(OC)c(NC(=O)OCc2ccccc2)c(OC)c1`, for which the melting point lay in the range of 132 to 133 °C.

Take `O=C1c2ccccc2C(=O)N1CC#CCSc1nccc(NC(=S)NCC(F)(F)F)n1`: the melting point fell in the range of 124 to 127 °C. As to `CC(=O)Oc1ccc2c(=O)c(C=O)coc2c1`, the melting point fell in the range of 157 to 159 °C. To `O=C(NC(Cc1ccc(NCc2ccccc2)cc1)C(=O)O)c1cn2cc(-c3ccc(Cl)cc3)ccc2n1` (centres undefined) belongs 260 °C. The value for `Cn1ncc(C(=O)N2CCC2)c1C(=O)Nc1ccn2nc(-c3cccc(F)n3)nc2c1` was 264 °C; that for `COc1c(C(O)CNC(C)(C)Cc2c(C)c(C)cc(C)c2C)ccc(O)c1O` (centres undefined) was 165 to 168 °C. The value for `Cc1ccc(Cc2cnc(NCCN(Cc3ccccc3)c3ccccn3)[nH]c2=O)cn1` was 178 to 182 °C; that for `O=C(O)CC(CSc1nc2ccccc2s1)C(=O)O` (centres undefined) was 136 to 139 °C. The molecule `C=Cc1cc(Br)c(OC(C)=O)c(Br)c1` registered a melting point of 76 °C. `CN1c2cscc2C(=O)N(CCN2CCOCC2)c2ccccc21` displayed a melting point of 109 to 111 °C. The value for `CN1CC2(c3cccc(O)c3)CCCC1C2` (centres undefined) was 144 to 146 °C.

Molecule `O=C(O)CCCC/C=C(/c1cccnc1)c1cccs1` showed a melting point of 84 to 85 °C. In turn, `N#Cc1cc2c(cc1O)OCC21C(=O)N(CC2CCCO2)c2ccccc21` (centres undefined) yielded a melting point of 218 to 221 °C. The value for `CS(=O)(=O)Nc1cc(C(O)CNCCCCCCOCC/C=C/c2ccc(F)cc2)ccc1O` (centres undefined) was 79 to 80 °C. To `O=Cc1cccc2cc3c(cc12)sc1ccccc13` belongs 199 to 200 °C; to `COc1cc[nH]c1C=C1C(=O)Nc2cccc(C#CC(O)c3ccc(OCC(=O)OC(C)(C)C)cc3)c21` (racemic), 173 to 175 °C. As to `O=S1(=O)c2cccc3cccc(c23)N1CCCN1CCC(CC2C=Cc3ccccc32)CC1` (centres undefined), the melting point was 140 °C. The molecule `CS(=O)(=O)Nc1ccc(CCN2CCN(C(=O)c3ccc4[nH]ccc4c3)CC2)cc1` displayed a melting point of 94 to 97 °C.

`CC(=O)OCC12CCC(OC(C)=O)CC1CC=C1C2CCC2(C)C(OC(=O)C(C)(C)C)CCC12O` (centres undefined): the melting point was 141 to 142 °C. The value for `O=Cc1coc2cc(OC(=O)OCC(Cl)(Cl)Cl)c(OC(=O)OCC(Cl)(Cl)Cl)cc2c1=O` was 153 to 155 °C; that for `O=C(NCP(=O)(O)c1ccccc1)c1ccccc1` was 158 to 160 °C. To `CC(C)Cn1c(=O)n(C)c(=O)c2c(Sc3nnc[nH]3)c(Cc3csc4ccccc34)sc21` belongs 237 to 238 °C. The value for `COc1ccc(-c2cccc(-c3ccc(OC)c(F)c3)n2)cc1F` was 108 °C; that for `COc1ccc(C(Cc2ccccc2)=NO)cc1` was 132 to 135 °C; that for `O=C(O)CCOc1cccc2c1Cc1sc(S(=O)(=O)CCC(c3ccccc3)c3ccccc3)nc1-2` was 215 to 218 °C. Consider `CCOC(=O)c1cc(C)c(Cl)nc1C(=O)OCC`, for which the melting point was 84 to 86 °C. As for `CCOC(=O)c1c(CN(CC)CC)nc2n(Cc3ccccc3)c3ccccc3n12`, the melting point lay in the range of 44 to 45 °C.

Take `CC1(C)CCC(C)(C)c2cc3cc(-c4c[nH]c(C(=O)O)c4)ccc3cc21`: the melting point fell in the range of 234 to 238 °C.

Take `O=C(Cc1c(-c2ccccc2)nn(-c2ccccc2)c1-c1ccccc1)Oc1ccccc1C(=O)O`: the melting point lay within 190 to 191 °C. The molecule `CSCn1cc(F)c(N=CN(C)C)nc1=O` showed a melting point of 132 to 136 °C. In the case of `O=C(Nc1ccccc1)Oc1ccccc1`, the melting point is 123 to 124 °C. Regarding `COc1cc(OC)cc(N2Cc3cnc(SC)nc3N=C2N)c1`, the melting point fell in the range of 198 to 204 °C.

On to `N#Cc1ccc(-c2ccoc2)cc1`, for which the melting point lay in the range of 55 to 57 °C.

`CN1CCCc2cc(Cc3cnc(N)nc3N)ccc21` yielded a melting point of 190 to 191 °C. On to `CON=Cc1cc(N2C(=O)C3=C(CCCC3)C2=O)c(Cl)cc1Cl`, for which the melting point fell in the range of 122 to 124 °C. The value for `Nc1nc2ccccc2n(-c2ccc(Cl)cc2)c1=O` was 254 to 255 °C. As for `Nc1ccccc1Sc1ccncc1`, the melting point was in the range of 103 to 107 °C. In the case of `CN(C)C(=O)CC1CN=C(c2cc3cc(Oc4ccc(S(C)(=O)=O)nc4)ccc3[nH]2)S1` (centres undefined), the melting point lay in the range of 190 to 191 °C. With `COc1ccc(S(=O)(=O)N(Cc2cccnc2)c2c(C(=O)O)cnc3cc(C)nn23)cc1`, the melting point lay in the range of 249 to 251 °C. The value for `COc1cc(OC)c2cc(-c3ccc(OC)nc3OC)oc2c1` was 155 to 156 °C; that for `Cn1cc(-c2cc3cccnc3[nH]2)c2cc(C(=O)NC(CO)(CO)CO)ccc21` was 205 to 206 °C; that for `CNC(=C[N+](=O)[O-])NCCCCc1ccc(CN(C)C)s1` was 104 to 106 °C.

The molecule `O=S(=O)(Nc1ccncc1)c1ccc(Br)s1` had a melting point of 310 °C. The value for `COc1cc2c(=O)c(Cc3cccnc3)cn3c4ccc(Br)cc4c(c1)c23` was 150 to 151 °C. For the molecule `O=C(Nc1ccc(CCc2ccc(Cl)c(Cl)c2)cc1)C1CSc2ccccc2C1=O` (centres undefined), the melting point was 234 to 236 °C. `C[C@H](NC(=O)c1ccc(C(N)=NO)cc1)C(=O)N1CCC(OCC(=O)OCOC(=O)C(C)(C)C)CC1` yielded a melting point of 126 °C. To `CC1CC(n2cncc2C(=O)O)c2ccccc21` (centres undefined) belongs 209 °C; to `CN(C(=O)Cl)c1ccc2c(c1)OCO2`, 71 to 73 °C.

`CCNCCCOc1ccc(-c2ccc(C(=O)OCC)cc2)cc1-c1ccc2c(c1)C(C)(C)CCC2(C)C` displayed a melting point of 148 °C. With `O=C(Nc1nc(C(Cl)(Cl)Cl)ns1)c1cc([N+](=O)[O-])cc([N+](=O)[O-])c1`, the melting point stood at 197 °C. As for `O=S(=O)(Nc1ccc(I)cc1)c1ccccc1`, the melting point fell in the range of 141 to 143 °C. The value for `CC(C)(C)c1cc(OCc2n[nH]c(=S)o2)cc(C(C)(C)C)c1O` was 195 to 196 °C. The value for `CC(C)(C)N(NC(=O)c1ccccn1)C(=O)c1ccc(Cl)c(Cl)c1` was 175 to 178 °C.
